Laboratory results published in patent US11945765B1, “4,4′-naphthalene-1,5-diylbis(diazene-2,1-diyl)bis(2-methylphenol) as an antioxidant compound” (KING FAISAL UNIVERSITY, priority 2023, dated 2024).

Test: DPPH radical scavenging antioxidant test
Conditions: 517 nm; for Inhibition (radical scavenging inhibition): DPPH (0.75 mM), compound 3 μM in ethanol, 30 minutes in the dark
Protocol: The antioxidant properties of the 4,4′-naphthalene-1,5-diylbis(diazene-2,1-diyl)bis(2-methylphenol) compound were studied by adding 0.2 mL DPPH (0.75 mM)) to 4,4′-naphthalene-1,5-diylbis(diazene-2,1-diyl)bis(2-methylphenol) (III) (3 μM) in ethanol. After 30 minutes of incubation in the dark, the absorbance was read against a blank at 517 nm. Ascorbic acid (vitamin C) was used as standard antioxidants (positive control). A blank sample was prepared by 0.2 ml of DPPH in 3 mL ethanol. A negative control sample was run using ethanol instead of the sample. The radical scavenging inhibition was calculated using the following equation: […]

Row | SMILES | Inhibition (radical scavenging inhibition) | antioxidant potential compared to vitamin C (in words) (DPPH in vitro test, vitamin C as positive control)
1 | Cc1cc(/N=N\c2cccc3c(/N=N/c4ccc(O)c(C)c4)cccc23)ccc1O [Product III, 4,4′-naphthalene-1,5-diylbis(diazene-2,1-diyl)bis(2-methylphenol)] | 52% | high potential as an antioxidant
2 | O=C1O[C@H]([C@@H](O)CO)C(O)=C1O [vit c, Ascorbic acid, reference compound] | 74% | 
